In PubChem BioAssay AID2060488 (Molecular Pharmacology Branch, DTP, NCI, 2025):
“And” between values parts separate entries of the source, which are not always exact repeats. Equal entries are not always repeated.

Test system: 966289-007-R4-J1-PDC complex spheroid viability
Test: Anticancer human tumor 966289-007-R4-J1-PDC patient-derived pancreatic adenocarcinoma cell line growth inhibition [GQUAD]
Conditions: for viability, T/C: stronger effect = lower value
Text: DNA G-quadruplex Stabilizer Agents in Combinations in Complex Spheroids
A high-throughput screen of multi-cell type tumor spheroids was designed to identify active combinations of DNA G-quadruplex stabilizer agents and targeted small molecules. Complex spheroids include a stromal component modeled by human endothelial cells (HUVEC) and fibroblasts modeled by human mesenchymal stem cells (MSCs). The concentration ranges selected for each drug and investigational agent were based upon clinically achievable concentrations if the clinical Cmax of the agent was known.
Compounds. The drugs and investigational agents: pidnarulex (CX-5461; NSC782164), APTO-253 (NSC789042), BRACO-19 (NSC847499), peposertib (NSC802822), ceralasertib (NSC780249), elimusertib (NSC800525), camonsertib (NSC841442), AZD-1390 (NSC803789), olaparib (NSC753686), talazoparib (NSC767125), ART-558 (NSC835418), sotorasib (NSC818433), MRTX-1133 (NSC836407), SN-38 (NSC673596), topotecan (NSC609699), etoposide (NSC141540), doxorubicin (NSC123127), gemcitabine (NSC613327), 5-fluorouracil (NSC19893), paclitaxel (NSC125973), vemurafenib (NSC761431), panobinostat (NSC761190), R-306465 (JNJ-16241199; NSC773264), adavosertib (NSC754352), TP-3654 (NSC805149), carboplatin (NSC241240), KSQ-4279 (NSC840948), and staurosporine (NSC755774) were obtained from the National Cancer Institute (NCI) Developmental Therapeutics Program Chemical Repository (34). The FDA-approved anticancer drug set is available from the NCI Developmental Therapeutics Program. […] The stock solutions were prepared in dimethyl sulfoxide (DMSO, Sigma-Aldrich, St. Louis, MO, cat. D2650) at 800-fold the tested concentration and stored at -70 degrees C prior to their use. All drugs and investigational agents were tested over a range starting from a high concentration at or near the clinical Cmax and decreasing in half-log increments. If the clinical Cmax for an agent had not been determined, the highest concentration tested was 10 microM.
2.3 Cell Culture. All cells were maintained in an incubator at 37 degrees C and 5% CO2 with 95% humidity. The PDC lines were cultured according to standard operating procedures established by the NCI PDMR. All PDCs were thawed and cultured in Matrigel-coated flasks prepared with a working solution of 1X Ham's F-12 nutrient mix, without supplementation (Invitrogen, cat. 11765054), 100 U/mL penicillin-streptomycin (Invitrogen, cat. 15140122), and 2.5% Matrigel (Corning Inc., cat. 354248) for the first three passages. The 857933-349-R-J2-PDC line was cultured in 6C/Colon 1B media, which includes advanced DMEM/F-12 (Thermo Fisher Scientific, cat. 12634028), 10 mM HEPES (Thermo Fisher Scientific, cat. 15630080), 1X GlutaMAX supplement (Thermo Fisher Scientific, cat. 35050061), 0.1 mg/mL primocin (InvivoGen, cat. ant-pm-2), 10% defined fetal bovine serum, heat inactivated (HyClone Laboratories Inc., cat. SH30070.03HI), 50% L-WRN conditioned media (ATCC, cat. CRL-3276), 1.25 mM N-Acetyl-L-cysteine (Sigma-Aldrich, cat. A9165), 10 mM nicotinamide (Sigma-Aldrich, cat. N0636), 1X B-27 supplement (Thermo Fisher Scientific, cat. 17504044), 1X N-2 supplement (Thermo Fisher Scientific, cat. 17502048), 10 microM Y-27632 dihydrochloride (Tocris Bioscience, cat. 1254), and 50 ng/mL human EGF recombinant protein (Thermo Fisher Scientific, cat. PHG0311). The 485176-168-R4-J1-PDC line was cultured in Panc media, which includes all 6C/Colon 1B media components plus 100 ng/mL human FGF-10 (Thermo Fisher Scientific, cat. 100-26), 500 nM SB-431542 (Selleckchem, cat. S1067), and gastrin (Tocris, cat. 3006).
[…]
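Note: spheroids exposed to the agents for seven days before readout.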
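Throughout, for viability, T/C: percent viability relative to DMSO vehicle control wells taken as 100%.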

SMILES	IC50 (curve of compound)	IC50 (compound alone, run of 03/26/2024)	viability, T/C (compound 0.0316 µM)	viability, T/C (compound 0.1 µM)	viability, T/C (compound 0.316 µM)	viability, T/C (compound 1 µM)	viability, T/C (compound 3.16 µM)	viability, T/C (compound 10 µM)	viability, T/C (compound 0.000999 µM)	viability, T/C (compound 0.00316 µM)	viability, T/C (compound 0.00999 µM)	viability, T/C (compound 0.0999 µM)
C#Cc1c(F)ccc2cc(O)cc(-c3ncc4c(N5CC6CCC(C5)N6)nc(OCC56CCCN5CC(F)C6)nc4c3F)c12 (stereo unspecified)	> 10000 nM		97.1% and 95.7%	112% and 91.4%	104% and 100%	102% and 97.3%	108% and 98.6%	113% and 95.9%				
C=CCn1c(=O)c2cnc(Nc3ccc(N4CCN(C)CC4)cc3)nc2n1-c1cccc(C(C)(C)O)n1	1840 nM and 1910 nM and 1580 nM		102% and 99.9% and 97.9%	105% and 97.2% and 108%	110% and 113% and 120%	101% and 105% and 81.8%	4.65% and 8.05% and 2.6%	1.72% and 1.84% and 1.48%				
CC(=O)O[C@H]1C(=O)[C@@]2(C)[C@H]([C@H](OC(=O)c3ccccc3)[C@]3(O)C[C@H](OC(=O)[C@H](O)[C@@H](NC(=O)c4ccccc4)c4ccccc4)C(C)=C1C3(C)C)[C@]1(OC(C)=O)CO[C@@H]1C[C@@H]2O	< 31.6 nM		5.97% and 4.08%	3.17% and 2.51%	4.33% and 3.04%	6.75% and 5.13%	9.64% and 6.14%	14.1% and 8.4%				
CC(C)(O)C1CCC(Nc2ccc3ncc(-c4cccc(C(F)(F)F)c4)n3n2)CC1 (stereo unspecified)	> 10000 nM and 2890 nM and 2470 nM		105% and 92.3% and 96.8%	100% and 95.3% and 106%	98.5% and 95.1% and 91.2%	93.8% and 90.5% and 107%	42.9% and 43.5% and 36.2%	75.9% and 49.8% and 33.1%				
CC(C)n1c(=O)n(C)c2cnc3cc(F)c(-c4ccc(OCCCN5CCCCC5)nc4)cc3c21	> 10000 nM		101% and 103% and 95.4%	103% and 106% (2×)	114% and 106% and 102%	107% and 105% and 114%	107% (2×) and 116%	86% and 88.6% and 91.8%				
CCCS(=O)(=O)Nc1ccc(F)c(C(=O)c2c[nH]c3ncc(-c4ccc(Cl)cc4)cc23)c1F	8170 nM and 7890 nM and 8200 nM		109% and 105% and 99.4%	102% and 96% and 99.5%	111% (2×) and 97.8%	110% and 106% and 114%	114% (2×) and 108%	37.5% and 36.5% and 38%				
CC[C@@]1(O)C(=O)OCc2c1cc1n(c2=O)Cc2cc3c(CN(C)C)c(O)ccc3nc2-1	46.5 nM and 53.5 nM and 31.9 nM		74.9% and 90.5% and 50.4%		0.62% and 0.47% and 0.41%				88.3% and 105% and 97.2%	92.3% and 95.7% and 100%	108% and 105% and 110%	0.78% and 1.86% and 0.73%
CCc1c2c(nc3ccc(O)cc13)-c1cc3c(c(=O)n1C2)COC(=O)[C@]3(O)CC	< 0.999 nM		0.8% and 0.6% and 0.43%		0.45% and 0.44% and 0.36%				21.8% and 23.1% and 26.9%	0.79% and 0.89% and 0.66%	0.67% and 0.66% and 0.5%	0.53% and 0.49% and 0.38%
CN(C)c1ccc(Nc2c3ccc(NC(=O)CCN4CCCC4)cc3nc3cc(NC(=O)CCN4CCCC4)ccc23)cc1		> 10000 nM	104% [middle of 12 runs]	107% [middle of 12 runs]	108% [middle of 11 runs]	108% [middle of 12 runs]	98.7% [middle of 12 runs]	99.8% [middle of 12 runs]				

Further lines, with some results ahead:

IC50 (curve of compound)	IC50 (compound alone, run of 03/26/2024)	SMILES	viability, T/C (compound 0.0316 µM)	viability, T/C (compound 0.1 µM)	viability, T/C (compound 0.316 µM)	viability, T/C (compound 1 µM)	viability, T/C (compound 3.16 µM)	viability, T/C (compound 10 µM)	viability, T/C (compound 0.000999 µM)	viability, T/C (compound 0.00316 µM)	viability, T/C (compound 0.00999 µM)	viability, T/C (compound 0.0999 µM)
> 10000 nM		C=CC(=O)N1CCN(c2nc(=O)n(-c3c(C)ccnc3C(C)C)c3nc(-c4c(O)cccc4F)c(F)cc23)C(C)C1 (stereo unspecified)	102% (2×) and 99.4%	102% and 99.7% and 98.1%	104% and 94.3% and 95.7%	90% and 101% and 75.8%	97.5% and 106% and 100%	110% and 108% and 116%				
163 nM and 231 nM and 176 nM		CC1COCCN1c1cc(-c2ccnn2C)c2ccnc(-c3ccn[nH]3)c2n1 (stereo unspecified)	112% and 106% and 104%	75.1% and 95% and 82.1%	15.9% and 32.8% and 16.8%	6.65% and 12.3% and 6.94%	4.32% and 6.18% and 4.41%	3.06% and 4.67% and 3.7%				
141 nM and 115 nM and 170 nM		CC1COCCN1c1cc(C2(O)CC3CCC(C2)O3)c2cnn(-c3ccn[nH]3)c2n1 (stereo unspecified)	112% and 111% and 109%	64.2% and 55% and 74.8%	16.3% and 13.5% and 20.4%	5.75% and 6.02% and 11.2%	4.81% and 4.92% and 6.7%	4.35% and 4.17% and 5.99%				
2850 nM and 4770 nM and 6110 nM		CC1COCCN1c1cc(C2(S(C)(=N)=O)CC2)nc(-c2ccnc3[nH]ccc23)n1 (stereo unspecified)	105% and 101% and 96.9%	104% and 98.3% and 105%	109% and 99.3% and 108%	95.2% and 103% and 108%	45.6% and 71.7% and 117%	6.26% and 10.7% and 7.26%				
